Data on 3 molecules can be found in patent US12102610B2, “Treprostinil salt” (Eli Lilly and Company, priority 2018, dated 2024).

A short description of series [1]: Hygroscopicity by dynamic vapor sorption/resorption, with XRD of samples from the adsorption/desorption process. In kind it is physicochemical. The conditions noted are these: for weight increase at the 80% relative humidity point: dried samples, sorption in 5% RH steps; for hygroscopicity classification: from weight increase at 80% relative humidity, European Pharmacopoeia monograph 5.11 definitions, experimental conditions differ; for physical form change on humidity exposure (XRD): samples collected at different points in the adsorption/desorption process. The protocol: Hygroscopicity analyses of treprostinil erbumine salt, prepared as described above, and treprostinil sodium, purchased from a chemical supply company, are performed on a TA Instruments Q5000SA sorption analyzer. Hygroscopicity profiles are generated on dried samples at 25° C., increasing relative humidity by 5% up to 95%, then decreasing in 5% intervals back down to 5% relative humidity. The samples are equilibrated at each increment until weight percent change is <0.0100 for 5 min.

Series [2] can be described thus: Thermal stability by thermal gravimetric analysis (TGA). In kind it is physicochemical. The protocol:
The thermal stability of samples of treprostinil erbumine salt, prepared as described above, and treprostinil free acid, purchased from a chemical supply company, are analyzed through thermal gravimetric analyses (TGA) performed on a TA Instruments TGA-Q5000 thermal gravimetric analyzer and differential scanning calorimetry (DSC) performed on a TA Instruments Q2000 differential scanning calorimeter. FIGS. 1 (erbumine salt) and 2 (free acid) show overlays of the TGA thermograms from 25-225° C. and the DSC thermograms from 25-300° C. […] DSC data for the erbumine salt show a single endothermic event (likely melt or decomposition) beginning at 143.73° C. and three endothermic events (71.17° C., 95.57° C., and 125.15° C.) for the free acid, corresponding to what is likely a hydrate along with at least two anhydrous crystal forms.

Structures can show the parent of a compound that is named as a salt. A value given as a limit tells only on which side of the number the result lay.

As for `CCCCC[C@H](O)CC[C@@H]1[C@H]2Cc3cccc(OCC(=O)O)c3C[C@H]2C[C@H]1O` [erbumine salt, 2-[[(1R,2R,3aS,9aS)-2-hydroxy-1-[(3S)-3-hydroxyoctyl]-2,3,3a,4,9,9a-hexahydro-1H-cyclopenta[g]naphthalen-5-yl]oxy]acetic acid t-butylamine], in series [1] (25° C.), the “weight increase at the 80% relative humidity point” value is < 0.2%. Also, in series [1], the hygroscopicity classification entry was “non-hygroscopic to slightly hygroscopic” and the “physical form change on humidity exposure (XRD)” value is reported as “did not show a physical form change”. Moreover, in series [2] (between 25-100° C.), the TGA weight loss is given as 0.2318%. The “thermally stable up to” value in series [2] (conclusion from TGA/DSC thermal characterization data) is “at least 100 °C”.
For the molecule `CCCCC[C@H](O)CC[C@@H]1[C@H]2Cc3cccc(OCC(=O)O)c3C[C@H]2C[C@H]1O` [free acid, (1R,2R,3aS,9aS)-[[2,3,3a,4,9,9a-Hexahydro-2-hydroxy-1-[(3S)-3-hydroxyoctyl]-1H-benz[f]inden-5-yl]oxy]acetic acid], the TGA weight loss in series [2] (between 26-70° C.) amounted to 1.090%.
In the case of `CCCCC[C@H](O)CC[C@@H]1[C@H]2Cc3cccc(OCC(=O)O)c3C[C@H]2C[C@H]1O` [sodium salt], in series [1] (25° C., desorption in 5% RH steps from 95%), the “relative humidity at which desorption of water begins” value is listed as 45 % RH. In addition, the “weight increase at the 80% relative humidity point” value in series [1] (25° C.) was 25%. In addition, in series [1], the hygroscopicity classification result is recorded as “very hygroscopic” and the “physical form change on humidity exposure (XRD)” value is “non-reversible change to amorphous or poorly crystalline state”.
